Data as given in ChEMBL document CHEMBL1133380, “3-Imidazolylmethylaminophenylsulfonyltetrahydroquinolines, a novel series of farnesyltransferase inhibitors” (Bioorg Med Chem Lett, 2000).

target: Protein farnesyltransferase (Homo sapiens, UniProt P49354+P49356); assay: Inhibition of Farnesyltransferase; format: protein-complex assay

| IC50 | SMILES |
| --- | --- |
| 0.6 nM | CSCC[C@H](NC(=O)[C@@H]1Cc2ccccc2CN1C(=O)[C@@H](NC[C@@H](N)CS)C(C)C)C(=O)O |
| 0.8 nM | CSCC[C@H](NC(=O)[C@@H]1Cc2ccccc2CN1C(=O)[C@@H](NCCc1cnc[nH]1)C(C)C)C(=O)O |
| 570 nM | N#Cc1cccc(CN(Cc2c[nH]cn2)c2cccc(S(=O)(=O)N3CCCc4ccccc43)c2)c1 |
| 130 nM | O=S(=O)(c1cccc(N(Cc2cnc[nH]2)Cc2cnc[nH]2)c1)N1CCCc2ccccc21 |
| 480 nM | CCCCOc1ccc(S(=O)(=O)N2CCCc3ccccc32)cc1N(Cc1cnc[nH]1)Cc1cnc[nH]1 |
| 15000 nM | O=S(=O)(c1cccc(NCc2cnc[nH]2)c1)N1CCCc2ccccc21 |
